For data set [1], the system named is Myzus persicae (Green Peach Aphid). Put plainly: Example B11: Myzus persicae, mixed population, feeding/residual contact activity (sprayed pepper plants). Format: in vivo. The conditions noted are these: 144 h, spray chamber, 6 days after treatment, read-out: activity against Myzus persicae (mortality).
The test system is the same in data set [2]. To be noted: 144 h, read-out: activity (mortality).
Data set [3] has the same test system. Put plainly: Example B1: Myzus persicae, mixed population, feeding/residual contact activity, preventive (sprayed sunflower leaf discs). The conditions noted are these: foliar, 144 h, read-out: activity (mortality).
Data set [4] has as its system Tetranychus urticae (Two-Spotted Spider Mite). To be noted: foliar, 192 h, read-out: activity (egg, larval and adult mortality).
Data set [5] relates to Aphis craccivora (Cowpea Aphid). As to the kind of experiment: Example B8: Aphis craccivora, mixed population, systemic/feeding (roots of pea seedlings in test solution). The conditions noted are these: 144 h, 25 ppm, roots in test solution, 6 days, read-out: activity (mortality). Format: in vivo. The text has this:
Activity Against Aphis craccivora (Cowpea Aphid)
(Mixed Population, Systemic/Feeding)
6 days later, samples are checked for mortality.

In data set [6] the test system is Nilaparvata lugens (Brown Rice Planthopper). Put plainly: Example B6: Nilaparvata lugens, larvicide, feeding/contact (rice seedlings). To be noted: in Oryza sativa, read-out: activity (mortality, growth regulation, effects on F1 generation).
For data set [7], the system named is Myzus persicae (Green Peach Aphid). Put plainly: Example B10: drench activity against Myzus persicae (pea seedlings in field soil). To be noted: 168 h, read-out: drench activity (mortality).
Data set [8] relates to Thrips tabaci (Onion Thrips). To be noted: foliar, 144 h, read-out: activity (mortality).

The values that follow come from patent publication US8574607B2, “Spiroheterocyclic thiofuran dione derivatives” (Syngenta Crop Protection, Inc., priority 2009, dated 2013).

Where two headings read alike, the source gives them in different places.

For `CCOC(=O)OC1=C(c2cc(C)ccc2C)C(=O)OC12CCN(OC)CC2` [P1.1, Carbonic acid 3-(2,5-dimethyl-phenyl)-8-methoxy-2-oxo-1-oxa-8-aza-spiro[4.5]dec-3-en-4-yl ester ethyl ester], the mortality at 200 ppm in [1] is not below 80%. Moreover, in [2], the mortality at 400 ppm is more than 80%.

With `CON1CCC2(CC1)OC(=O)C(c1cc(C)ccc1C)=C2OC(=O)C(C)(C)C` [P1.2], the mortality at 400 ppm in data set [3] and in data set [2] was more than 80% in each case.

As for `CCOC(=O)OC1=C(c2cc(C)c(C)cc2C)C(=O)OC12CCN(OC)CC2` [P1.3], in data set [1], the mortality at 200 ppm is not below 80%. In addition, the mortality at 400 ppm in data set [3] and in data set [2] was more than 80% in each case.

In the case of `CON1CCC2(CC1)OC(=O)C(c1cc(C)c(C)cc1C)=C2OC(=O)C(C)(C)C` [P1.4], the mortality at 200 ppm in data set [1] is not below 80%. For the same compound, the mortality at 400 ppm in data set [3] and in data set [2] was more than 80% each time.

Take `CCOC(=O)OC1=C(c2c(C)cc(C)cc2C)C(=O)OC12CCN(OC)CC2` [P1.5, Carbonic acid ethyl ester 8-methoxy-2-oxo-3-(2,4,6-trimethylphenyl)-1-oxa-8-aza-spiro[4.5]dec-3-en-4-yl ester]: the mortality at 400 ppm in data set [3] and in [2] was more than 80% each time.

`CON1CCC2(CC1)OC(=O)C(c1c(C)cc(C)cc1C)=C2OC(=O)C(C)(C)C` [P1.6]: the mortality at 200 ppm in data set [1] was not below 80%. In addition, the mortality at 400 ppm in data set [3] and in [2] was more than 80% in each case.

As for `CCOC(=O)OC1=C(c2c(C)cc(C)cc2C)C(=O)SC12CCN(OC)CC2` [P1.7, Carbonic acid ethyl ester 8-methoxy-2-oxo-3-(2,4,6-trimethylphenyl)-1-thia-8-aza-spiro[4.5]dec-3-en-4-yl ester], the mortality at 400 ppm in [3] is more than 80%.

Turning to `CCOC(=O)OC1=C(c2c(C)cc(Br)cc2C)C(=O)OC12CCN(OC)CC2` [P1.8], in [2], the mortality at 400 ppm is more than 80%.

Take `CON1CCC2(CC1)OC(=O)C(c1c(C)cc(C)cc1C)=C2OC(=O)CC(C)(C)C` [P1.9]: the mortality at 400 ppm in [3] and in [2] was more than 80% each time.

Consider `CCC(C)(C)C(=O)OC1=C(c2c(C)cc(C)cc2C)C(=O)OC12CCN(OC)CC2` [P1.10], for which the mortality at 400 ppm in [4], in data set [3] and in data set [2] was more than 80% throughout.

With `CCOC(=O)OC1=C(c2c(C)cc(Cl)cc2C)C(=O)OC12CCN(OC)CC2` [P1.11], the mortality at 25 ppm in data set [5] and in data set [7] was more than 80% in each case. The mortality at 200 ppm in data set [1] is not below 80%. The mortality at 400 ppm in data set [6], in [4], in data set [3] and in data set [2] was more than 80% throughout.

Regarding `C=Cc1cc(C)c(C2=C(OC(=O)OCC)C3(CCN(OC)CC3)OC2=O)c(C)c1` [P1.12], the mortality at 400 ppm in data set [2] was more than 80%.

Consider `CCOC(=O)OC1=C(c2ccc(C)cc2C)C(=O)OC12CCN(OC)CC2` [P1.13], for which the mortality at 200 ppm in data set [1] was not below 80%. Further, the mortality at 400 ppm in [8], in [3] and in data set [2] was more than 80% throughout.

Regarding `CCOC(=O)OC1=C(c2ccc(Cl)cc2Cl)C(=O)OC12CCN(OC)CC2` [P1.14], the mortality at 400 ppm in data set [3] and in data set [2] was more than 80% each time.

For `CCOC(=O)OC1=C(c2c(C)ccc(Cl)c2C)C(=O)OC12CCN(OC)CC2` [P1.15], the mortality at 400 ppm in [4] is more than 80%.

The compound `CCOC(=O)OC1=C(c2cc(C)ccc2OC)C(=O)OC12CCN(OC)CC2` [P1.16] registered a melting point of 81 to 83 °C.

`CCOC(=O)OC1=C(c2c(C)cc(C)cc2C)C(=O)OC12CCN(OCC)CC2` [P1.17]: the mortality at 400 ppm in [8], in [4], in data set [3] and in [2] was more than 80% throughout.

As to `CCOC(=O)OC1=C(c2c(C)cc(C)c(Cl)c2C)C(=O)OC12CCN(OC)CC2` [P1.18], the mortality at 400 ppm in data set [2] was more than 80%.

Consider `CCOC(=O)OC1=C(c2c(C)cc(C)cc2C)C(=O)OC12CCN(OCCOC)CC2` [P1.19], for which the mortality at 400 ppm in data set [4] and in [2] was more than 80% throughout.

Regarding `CCOC(=O)OC1=C(c2c(F)ccc(Br)c2Cl)C(=O)OC12CCN(OC)CC2` [P1.29], the mortality at 400 ppm in data set [4] is more than 80%.

The compound `CCOC(=O)OC1=C(c2c(Cl)cc(Br)cc2Cl)C(=O)OC12CCN(OC)CC2` [P1.30] had a melting point of 122 to 125 °C.

In the case of `CCOC(=O)OC1=C(c2cc(C)c(Cl)cc2C)C(=O)OC12CCN(OC)CC2` [P1.33], in data set [2], the mortality at 400 ppm was more than 80%.

In the case of `CCOC(=O)OC1=C(c2c(C)cc(C)cc2C2CC2)C(=O)OC12CCN(OC)CC2` [P1.34], the mortality at 400 ppm in data set [4] and in data set [2] was more than 80% in each case.

Take `CCOC(=O)OC1=C(c2c(C)cc(C)c(Br)c2C)C(=O)OC12CCN(OC)CC2` [P1.39]: the melting point lay within 52 to 54 °C.

In turn, `CCOC(=O)OC1=C(c2c(C)cccc2C)C(=O)OC12CCN(OC)CC2` [P1.40] showed a melting point of 93 to 94 °C.

As to `CON1CCC2(CC1)OC(=O)C(c1cc(C)ccc1C)=C2O` [P2.1, 3-(2,5-dimethyl-phenyl)-4-hydroxy-8-methoxy-1-oxa-8-aza-spiro[4.5]dec-3-en-2-one], the mortality at 200 ppm in [1] was not below 80%. Further, the mortality at 400 ppm in data set [3] and in [2] was more than 80% each time.

In the case of `CON1CCC2(CC1)OC(=O)C(c1cc(C)c(C)cc1C)=C2O` [P2.2, 4-Hydroxy-8-methoxy-3-(2,4,5-trimethyl-phenyl)-1-oxa-8-aza-spiro[4.5]dec-3-en-2-one], the mortality at 200 ppm in data set [1] is not below 80%. In addition, the mortality at 400 ppm in data set [8], in [3] and in [2] was more than 80% in each case.

`CON1CCC2(CC1)SC(=O)C(c1c(C)cc(C)cc1C)=C2O` [P2.4, 4-hydroxy-8-methoxy-3-(2,4,6-trimethyl-phenyl)-1-thia-8-aza-spiro[4.5]dec-3-en-2-one]: the mortality at 400 ppm in data set [4] and in data set [3] was more than 80% in each case.

With `CON1CCC2(CC1)OC(=O)C(c1c(C)cc(Br)cc1C)=C2O` [P2.5], the mortality at 400 ppm in [3] and in data set [2] was more than 80% each time.

`CON1CCC2(CC1)OC(=O)C(c1c(C)cc(Cl)cc1C)=C2O` [P2.6]: the mortality at 400 ppm in data set [4] and in data set [3] was more than 80% in each case.

In the case of `C=Cc1cc(C)c(C2=C(O)C3(CCN(OC)CC3)OC2=O)c(C)c1` [P2.7], the mortality at 400 ppm in data set [3] and in [2] was more than 80% each time.

With `CON1CCC2(CC1)OC(=O)C(c1ccc(C)cc1C)=C2O` [P2.8], the mortality at 200 ppm in data set [1] is not below 80%. In addition, the mortality at 400 ppm in data set [3] and in data set [2] was more than 80% in each case.

Regarding `CON1CCC2(CC1)OC(=O)C(c1ccc(Cl)cc1Cl)=C2O` [P2.9], the mortality at 400 ppm in [4] is more than 80%.

Take `CCON1CCC2(CC1)OC(=O)C(c1c(C)cc(C)cc1C)=C2O` [P2.12]: the mortality at 400 ppm in data set [8], in data set [4], in data set [3] and in data set [2] was more than 80% each time.

Turning to `CON1CCC2(CC1)OC(=O)C(c1c(C)cc(C)c(Cl)c1C)=C2O` [P2.13], the mortality at 400 ppm in [4] and in data set [2] was more than 80% each time.

With `COCCON1CCC2(CC1)OC(=O)C(c1c(C)cc(C)cc1C)=C2O` [P2.14], the mortality at 400 ppm in [8] and in [4] was more than 80% throughout.

Turning to `CON1CCC2(CC1)OC(=O)C(c1ccc(F)cc1)=C2O` [P2.20], in data set [4], the mortality at 400 ppm was more than 80%.

For `COc1ccccc1C1=C(O)C2(CCN(OC)CC2)OC1=O` [P2.34], the mortality at 400 ppm in data set [3] was more than 80%.

As for `CON1CCC2(CC1)OC(=O)C(c1ccc(Cl)cc1)=C2O` [P2.35], the mortality at 400 ppm in [4] was more than 80%.

In the case of `COc1c(Cl)cccc1C1=C(O)C2(CCN(OC)CC2)OC1=O` [P2.37], the mortality at 400 ppm in data set [3] is more than 80%.

Consider `CON1CCC2(CC1)OC(=O)C(c1c(Br)cc(C)cc1Br)=C2O` [P2.40], for which the mortality at 400 ppm in data set [4] was more than 80%.

On to `CON1CCC2(CC1)OC(=O)C(c1c(C)cc(Br)cc1Cl)=C2O` [P2.47], for which, in [1], the mortality at 200 ppm is not below 80%.

Turning to `CON1CCC2(CC1)OC(=O)C(c1cc(C)c(Cl)cc1C)=C2O` [P2.48], the mortality at 200 ppm in data set [1] is not below 80%.

For `CON1CCC2(CC1)OC(=O)C(c1c(C)cc(C)cc1C1CC1)=C2O` [P2.49], the mortality at 400 ppm in data set [4], in [3] and in data set [2] was more than 80% throughout.

With `C=Cc1cc(C)cc(C)c1C1=C(O)C2(CCN(OC)CC2)OC1=O` [P2.50], the mortality at 400 ppm in data set [3] and in data set [2] was more than 80% each time.

On to `CCc1cc(C)cc(C)c1C1=C(O)C2(CCN(OC)CC2)OC1=O` [P2.51], for which the mortality at 400 ppm in data set [4], in data set [3] and in data set [2] was more than 80% each time.
